The values below come from US11022604B2, “Dock derived compound against laminin receptor (37 LR) and uses thereof” (Purdue Research Foundation, priority 2017, dated 2021).

The experiment has as its system PC-3 cells. Briefly: BrdU incorporation assay. It is filed as cell-based. Particulars: read-out: IC50, inhibition of BrdU incorporation (proliferation). As to the method:
PC-3 cells were treated with 100 nM to 100 μM C3 for 24 hours and BrdU incorporation was quantified using HRP generated luminescence from an antibody pair recognizing BrdU (n=6, mean±SEM). C3 BrdU signal was normalized to a row where PC-3 cells were exposed to 0.5% DMSO (assay conditions). Curve obtained using GraphPAd Prism as described in the methods.
Cell Viability Screen. PC-3, Endo, TC2-Ras, SH-SY5Y, and LNCaP cells were seeded in 96-well plates at 1,500 cells per well using the Scepter cell counter (EMD Millipore). Cells were continuously incubated with compound using a 6-point dose curve: 100, 57.5, 32.4, 18.6, 10.5, and 6.0 μM in their respective complete media. Cell viability was measured by using the cell counting kit-8 (CCK-8, Dojindo). […] CCK-8 absorbance was measured at 450 nm using a GloMax Multimode Reader (Promega). Readings were performed the day after seeding to normalize for variations in cell seeding and after 96 hours of compound treatment. After each reading, CCK-8 media was removed and replaced with media containing compound as described previously. […] As described previously, an initial baseline CCK-8 reading was performed at 24 hours post seeding to correct for variations in seeding density. First, 450 nm values for each well were subtracted from media only readings to correct for baseline absorbance. […]
A general note: Dividing cells build labelled thymidine or BrdU into new DNA.

Read-outs that look alike come from different tables or passages of the source.

With `O=C(c1cc(F)cc2c1OCOC2)N1CCN(C2c3ccccc3-c3ccccc32)CC1` [Compound C3, [4-(9h-fluoren-9-yl)piperazino](6-fluoro-4h-1,3-benzodioxin-8-yl)methanone], the IC50 is, setting by setting: (24 hours) 10 µM; (Homo sapiens, PC-3, 24 h) 10.1 µM.
